US8563259B2, “Complement-mediated thrombophilic assay” (The Trustees of the University of Pennsylvania, priority 2007, dated 2013)

Test system: TF expression induced by activated complement in normal primary cells (monocytes or neutrophils)
Test: modified PT (mPT) assay with supernatant of healthy primary cells stimulated with patient serum, with or without complement inhibitor
Format: cell-based, human
Source text: To test serum for complement activating activity, serum was obtained from patients diagnosed with various disorders. Serum was obtained from patients diagnosed with: antiphospholipid syndrome (APS; n=26), systemic lupus erythymatosus (SLE; n=9), rheumatoid arthritis (n=12), sepsis (n=6), metastatic cancer (n=8) and inherited hypercoagulation (n=9). Serum was also obtained from healthy individuals (n=22).
Freshly obtained primary cells (monocytes or neutrophils) obtained from healthy donors were suspended in phosphate buffered saline (PBS). In parallel, the cells were stimulated with patient serum and with patient serum that was pre-incubated for 30 minutes with either 15 μM Compstatin or 10 μM C5aR antagonist to inhibit complement. The cells were incubated with serum for approximately 2 to 2.5 hours at 37° C. Subsequently, supernatant from the serum-incubated cells was obtained by centrifugation at 1000×g for 10 minutes. The supernatant was then assessed in a modified PT assay.
In a standard PT assay, 100 μl patient plasma is mixed with 200 μl commercial thromboplastin (International Sensitivity Index (ISI) 1.0 or ISI 1.9), and time of clotting is assessed by measuring in seconds the time required for clot formation after thromboplastin is added. In the modified PT (mPT) assay, 100 μl platelet-poor plasma (PPP) from a healthy subject was used and about 120-130 μl of the commercial thromboplastin (also called tissue factor) was replaced with PBS (the total volume of clotting reaction remains stable, at 300 μl) in order to obtain a technical prolongation of the clotting time from about 12-13 seconds to about 32-37 seconds. To test the effect of the test serum on TF expression of healthy primary blood cells, the about 120-130 μl PBS was replaced with about 120-130 μl of supernatant from the primary cells stimulated with test serum. All mPT assays were performed independently by two experienced physicians.
When complement is activated in the test serum, the use of 120-130 μl supernatant in the mPT test reduces the clotting time from about 32-37 sec to about 18-20 seconds. This reduction in clotting time occurs because TF expression is induced in the normal primary cells by the activated complement. When the activated complement in the test serum has been inhibited (e.g., with Compstatin or C5aR antagonist), TF expression is not induced by activated complement in normal primary cells and the mPT remains unchanged (about 32 to about 37 seconds).

## CC[C@H](C)[C@H](N)C(=O)N[C@H]1CSSC[C@@H](C(=O)N[C@H](C(N)=O)[C@@H](C)O)NC(=O)[C@H](CCCN=C(N)N)NC(=O)[C@H](Cc2cnc[nH]2)NC(=O)[C@H](Cc2cnc[nH]2)NC(=O)CNC(=O)[C@H](Cc2c[nH]c3ccccc23)NC(=O)[C@H](CC(=O)O)NC(=O)[C@H](CCC(N)=O)NC(=O)[C@H](C(C)C)NC(=O)[C@H](C(C)C)NC1=O [Compstatin, Ile-Cys-Val-Val-Gln-Asp-Trp-Gly-His-His-Arg-Cys-Thr]
APS and SLE patients
  sensitivity of the mPT test after Compstatin-mediated inhibition of complement (pro-coagulant activity completely abolished): 100%
APS serum (n = 26), serum pre-incubated 30 minutes with 15 μM Compstatin or 10 μM C5aR antagonist
  Clotting time: 31.11 ± 0.26 s
Acute sepsis serum (n = 6), serum pre-incubated 30 minutes with 15 μM Compstatin or 10 μM C5aR antagonist
  Clotting time: 28.97 ± 0.80 s
Healthy donor serum (n = 22), serum pre-incubated 30 minutes with 15 μM Compstatin or 10 μM C5aR antagonist
  Clotting time: 31.19 ± 0.16 s
Inherited hypercoagulation serum (n = 9), serum pre-incubated 30 minutes with 15 μM Compstatin
  Clotting time: 29.01 ± 1.08 s
Metastatic cancer serum (n = 8), serum pre-incubated 30 minutes with 15 μM Compstatin
  Clotting time: 26.07 ± 1.21 s
Rheumatoid arthritis serum (n = 12), serum pre-incubated 30 minutes with 15 μM Compstatin
  Clotting time: 30.26 ± 0.81 s
SLE serum (n = 9), serum pre-incubated 30 minutes with 15 μM Compstatin or 10 μM C5aR antagonist
  Clotting time: 31.26 ± 0.17 s
Acute sepsis serum versus APS or SLE serum
  difference in clotting time before and after inhibition in acute sepsis, as share of the time difference for either APS or SLE serum: about 30%
Sera from septic patients
  effect of treatment on clotting time: partial inhibition
